Here are results for two molecules from PubChem BioAssay AID330 (DTP/NCI, 2004).

The experiment relates to P388 leukemia ip, CD2F1 mice, survival T/C. Put plainly: NCI In Vivo Anticancer Drug Screen. Data for tumor model P388 Leukemia (intraperitoneal) in CD2F1 (CDF1) mice. The conditions noted are these: endpoint: median survival time, schedule: Q04DX003 (ip), vehicle: saline with Tween-80, higher = longer survival. A digest of the protocol:
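Mice carrying the transplanted tumor received test compound or vehicle. Survival was recorded in each group, and the value is the treated-group measurement divided by that of the vehicle-treated control group.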

Structures are written as SMILES. Toxic doses and inconclusive results are not listed.

Take `O=C(CNC(=O)OCc1ccccc1)NCC1OC(n2cnc3c(=O)[nH]cnc32)C(O)C1O` (stereo not given): the T/C is, setting by setting: (dose: 50.0 mg/kg/injection) 102 % of control; (dose: 100.0 mg/kg/injection) 94 % of control; (dose: 200.0 mg/kg/injection) 98 % of control.

`COc1ccc(N=Nc2c(O)n(-c3ccc(Br)cc3)c(=S)n(-c3ccc(OC)cc3)c2=O)cc1`: the T/C is, setting by setting: (dose: 100.0 mg/kg/injection) 96 % of control; (dose: 200.0 mg/kg/injection) 87 % of control.
